# Data reported in patent US20160158246A1, “METHOD OF TREATING DIFFUSE LARGE B-CELL LYMPHOMA (DLBCL) USING A BET-BROMODOMAIN INHIBITOR” (ONCOETHIX GMBH, priority 2013, published 2016).
# pIC50: −log10 of the molar value.
# Key:
# [1] = molecular target: mTORC1 (Homo sapiens, UniProt P42345); conditions: cited from earlier work
# [2] = test system: PKC; conditions: cited from earlier work
# [3] = molecular target: BTK and PKCβII (Homo sapiens, UniProt Q06187); conditions: in intact cells and in cell-free systems; cited from earlier work
# BTK and PKCβII, sequence (Q06187 whole entry, species assumed): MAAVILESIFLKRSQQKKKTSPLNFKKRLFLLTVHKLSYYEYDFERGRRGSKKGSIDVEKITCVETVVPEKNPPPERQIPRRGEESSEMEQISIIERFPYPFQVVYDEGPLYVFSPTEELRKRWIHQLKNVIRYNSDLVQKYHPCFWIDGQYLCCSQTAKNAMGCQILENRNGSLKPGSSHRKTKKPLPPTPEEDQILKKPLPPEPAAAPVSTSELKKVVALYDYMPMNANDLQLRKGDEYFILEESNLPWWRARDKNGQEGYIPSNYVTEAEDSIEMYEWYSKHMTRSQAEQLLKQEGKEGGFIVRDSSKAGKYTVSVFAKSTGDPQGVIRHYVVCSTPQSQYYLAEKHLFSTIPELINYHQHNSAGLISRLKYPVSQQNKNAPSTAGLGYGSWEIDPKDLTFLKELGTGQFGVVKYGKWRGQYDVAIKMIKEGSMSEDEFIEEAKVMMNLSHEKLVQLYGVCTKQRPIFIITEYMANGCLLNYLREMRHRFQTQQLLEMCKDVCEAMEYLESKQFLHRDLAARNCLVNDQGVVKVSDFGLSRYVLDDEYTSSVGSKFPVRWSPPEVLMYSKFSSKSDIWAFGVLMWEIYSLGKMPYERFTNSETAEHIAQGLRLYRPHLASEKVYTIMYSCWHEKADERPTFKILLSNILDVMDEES
# [4] = molecular target: Bruton's tyrosine kinase (BTK) (Homo sapiens, UniProt Q06187); conditions: in intact cells and in cell-free systems; cited from earlier work
# Bruton's tyrosine kinase (BTK), sequence (Q06187 whole entry, species assumed): as above
# [5] = test system: Lyn, Syk, PKA, casein kinase I, ERK1, ERK2 and p38 kinase; conditions: cited from earlier work
# [6] = test system: pSTAT3 and p50 (NFKB 1) in ABC cell lines; assay: immunoblotting and immunohistochemistry; assay type: cell-based
# [7] = test system: IL10 and IL4 production; assay: IL10 and IL4 production; assay type: cell-based; conditions: after 24 hours treatment
# [8] = test system: NFKB target genes (IRF4, TNFAIP3 and BIRC3); assay: PCR of NFKB target genes; assay type: cell-based
# [9] = test system: DLBCL cell lines (SU-DHL-6, SU-DHL-2); assay: gene expression profiling (Illumina HumanHT-12 Expression BeadChips); assay type: cell-based
# Method: Baseline gene expression profiles (GEP) were obtained in 38 lymphoma cell lines, including 22 DLBCL with Illumina HumanHT-12 v4 Expression BeadChip. GEP before and after OTX015 treatment were done in […] DLBCL cell lines, too. The relationship between GEP and IC50 values was assessed by Pearson correlation. LIMMA was used for differential expression analysis, followed by Benjamini-Hochberg multiple test correction, and GSEA to test for enrichment of functionally-related genes.
# Cell lines: 22 diffuse large B-cell lymphoma (DLBCL), 4 mantle cell lymphomas, 3 multiple myelomas, 3 splenic marginal zone lymphoma and 1 prolymphocytic leukemia. Anti-proliferative of OTX015 (OncoEthix SA, Switzerland) was assessed by MTT and its cytotoxic activity by Annexin V staining and gene expression profiling (GEP) with Illumina HumanHT-12 Expression BeadChips. Data mining was done with LIMMA, GSEA, Metacore.
# We performed GEP on 2 cell lines (SU-DHL-6, SU-DHL-2), treated with DMSO or OTX015 (500 nM) for 1, 2, 4, 8 or 12 hours.
# [10] = test system: pAktS473, pGSK3βS9, pS6, pMAPK, pAktT308; conditions: cited from earlier work
# [11] = molecular target: mTORC2 (Homo sapiens, UniProt P42345); conditions: cited from earlier work
# [12] = SU-DHL-6, SU-DHL-2, 500 nM for 1, 2, 4, 8 or 12 hours
smiles,measurement,setting,value
COc1cccc2cc(-c3nc([C@H]4CC[C@H](C(=O)O)CC4)n4ncnc(N)c34)[nH]c12 [OSI-027],pIC50,[1],7.66
"CC1=C(O)C(=O)[C@@H]2O[C@@H]2C1=O [Terreic acid, (1R,6S)-3-Hydroxy-4-methyl-7-oxabicyclo[4.1.0]hept-3-ene-2,5-dione]",activity of PKC,[2],without affecting the activity of PKC
same,interaction between BTK and PKCβII,[3],Inhibits the catalytic activity of BTK as well as the interaction between BTK and PKCβII
same,catalytic activity of BTK,[4],Inhibits the catalytic activity of BTK
same,"effect on activities of Lyn, Syk, PKA, casein kinase I, ERK1, ERK2 and p38 kinase",[5],little or no effect
"Cc1sc2c(c1C)C(c1ccc(Cl)cc1)=N[C@@H](CC(=O)Nc1ccc(O)cc1)c1nnc(C)n1-2 [Compound (1-1), 2-[(6S)-4-(4-chlorophenyl)-2,3,9-trimethyl-6H-thienol[3,2-f]-[1,2,4]triazolo[4,3-a][1,4]diazepin-6-yl]-N-(4-hydroxyphenyl)acetamide dihydrate]",nuclear localization of p50 (NFKB 1),[6],reduction in nuclear localization of p50 (NFKB 1)
same,transcriptionally active pSTAT3,[6]; 2 ABC cell lines,reduction of transcriptionally active pSTAT3
same,IL10 and IL4 production,[7],IL10 and IL4 production was reduced
same,NFKB target gene expression (PCR),[8],"NFKB target genes (IRF4, TNFAIP3 and BIRC3) were also downregulated"
same,MYD88/JAK/STAT pathway expression (additional GEP),[9]; Example 7,down-regulation of the MYD88/JAK/STAT pathway
same,"genes downregulated (GEP), members of the NFKB, TLR and JAK/STAT pathways",[9]; [12],"downregulated MYD88, IRAK1, TLR6, IL6, STAT3, and TNFRSF17"
same,most frequently downregulated gene (GEP),[9]; [12],MYC was the most frequently downregulated gene
same,most upregulated genes (GEP),[9]; [12],Most upregulated genes were histones
COc1ccc(COc2cc3oc(=O)c4cc(C(C)O)ccc4c3cc2OC)cc1 (stereo not shown) [Palomid 529],effect on phosphorylation markers,[10],"reduces phosphorylation of pAktS473, pGSK3βS9, and pS6 but neither pMAPK nor pAktT308"
same,mTORC1 complex inhibition,[1],inhibits both the mTORC1 and mTORC2 complexes
same,mTORC2 complex inhibition,[11],inhibits both the mTORC1 and mTORC2 complexes
